Source: patent publication US20220127297A1, “Novel Antibacterial 3"-Derivatives Of 4,6-Disubstituted 2,5-Dideoxystreptamine Aminoglycoside Antibiotics” (AGILeBiotics B.V., priority 2018, published 2022)
In brackets after ≈: the same amount, converted by molar mass.

What follows are compounds tested on E. coli (APH(3′)IIIa) (assay: MIC 50, broth micro-dilution, E. coli expressing APH(3′)IIIa). Conditions: ATCC25922 harboring plasmid encoding APH(3′)IIIa.
Type: cell-based, Escherichia coli
Method in brief: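 Read-out is OD600 after 18 h at 37° C, triplicates averaged, with MIC50 taken where growth first fell to half of maximum. Plasmid-bearing E. coli ATCC 25922 at OD 0.1 in MH2 faced serially halved compound from 64 μM down to 31.3 nM.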

First: NCC[C@H](O)C(=O)N[C@@H]1CC(N)[C@@H](O[C@H]2OC(CN)[C@@H](O)CC2N)[C@H](O)C1OC1O[C@H](CO)[C@@H](O)C(N)[C@H]1O (stereo partly shown) [ABX5004, Tobra-AHB]
Second: NCCC(O)C(=O)NC1CC(N)C(OC2OC(CN)C(O)C(O)C2N)C(F)C1OC1OC(CO)C(O)C(N)C1O (stereo not shown) [ABX4007, KanaB-AHB-F]
The “MIC50” value of the first is lower: 4 to 8 µM for the first, 16 µM (≈ 9.39 µg/mL) for the second.

Same assay, conditions: Escherichia coli, ATCC25922, ATCC25922 harboring plasmid encoding APH(3′)IIIa

First: N=C(NCc1cnc[nH]1)NC1[C@@H](O)C(OC2[C@@H](F)[C@H](O[C@H]3OC(CN)[C@@H](O)CC3N)C(N)C[C@H]2NC(=O)[C@@H](O)CCN)O[C@H](CO)[C@H]1O (stereo partly shown) [ABX5050, Tobra-AHB-F-Gua imidazol-5-yl methyl]
Second: N=C(NCc1ccncc1)NC1[C@@H](O)C(OC2[C@@H](F)[C@H](O[C@H]3OC(CN)[C@@H](O)CC3N)C(N)C[C@H]2NC(=O)[C@@H](O)CCN)O[C@H](CO)[C@H]1O (stereo partly shown) [ABX5048, Tobra-AHB-F-Gua pyridin-4-yl methyl]
The MIC50 of the first is higher: 1 to 2 µM (≈ 0.693 to 1.39 µg/mL) for the first, 0.25 µM (≈ 0.176 µg/mL) for the second.

Compared with `N=C(N)NC1[C@@H](O)C(OC2[C@@H](F)[C@H](O[C@H]3OC(CN)[C@@H](O)[C@H](O)C3O)C(N)C[C@H]2NC(=O)[C@@H](O)CCN)O[C@H](CO)[C@H]1O` (stereo partly drawn) [ABX3003, 3′epi-KanaA-AHB-F-Gua], `NCC[C@H](O)C(=O)N[C@@H]1C[C@H](N)[C@@H](O[C@H]2O[C@H](CN)[C@@H](O)[C@H](O)[C@H]2O)[C@H](O)[C@H]1O[C@H]1O[C@H](CO)[C@@H](O)[C@H](N)[C@H]1O` [Amikacin, amikacin, reference compound] is higher in MIC50: 2 µM (≈ 1.26 µg/mL) for the first, 16 to 32 µM (≈ 9.37 to 18.7 µg/mL) for the second.

With `N=C(N)NC1[C@@H](O)C(OC2[C@@H](F)[C@H](O[C@H]3OC(CNCCO)[C@@H](O)CC3N)C(N)C[C@H]2NC(=O)[C@@H](O)CCN)O[C@H](CO)[C@H]1O` (stereo partly shown) [ABX5045, 6N-2-hydroxy-ethyl-Tobra-AHB-F-Gua] the MIC50 was 1 µM (≈ 0.657 µg/mL).
